# Where no end group is shown, it is not given here.
# Test system: serum fucosylated PSA
# Experiment: Sandwich ELISA, anti-PSA antibody and biotin-labeled lectin
# Assay type: binding, human
# Settings: for Δ (=A − B): reaction value of Prostate cancer 4 minus Healthy 1; for lectin reaction value B of Healthy 1: serum of Healthy 1; for lectin reaction value A of Prostate cancer 4: serum of Prostate cancer 4, GS 6 (3 + 3)
# Summary of the method: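 De-glycosylated anti-PSA antibody (5 μg/mL) captured PSA from 2-fold diluted serum, detected with biotin-PhoSL (0.1 μg/mL, 4° C, 30 min) in 0.1% BSA/diluted PBS+glycine-NaOH pH 9.6 or PBS pH 7.4, then HRP-streptavidin/TMB at Ab450-630. Values in U/mL from fucosylated PSA calibration, 10 ng/mL defined as 10 U/mL; AAL substituted for comparison.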
# [1] = subject samples A, 7 healthy persons, pH 9.6
# [2] = subject samples A, 9 patients, pH 9.6
# [3] = subject samples B, n 9, high blood PSA but no cancer in biopsy, pH 9.6
# [4] = subject samples B, n 11, pH 9.6
substance,measurement,setting,value
"PhoSL: fucose α1→6 specific lectin that can be extracted from Pholiota squarrosa, SEQ ID No. 1 (APVPVTKLVCDGDTYKCTAYLDFGDGRWVAQWDTNVFHTG; not fully specified; ends and bridges not checked)",Δ (=A − B),pH in lectin reaction 7.4,72.6 U/mL
same,Δ (=A − B),pH in lectin reaction 9.6,126.9 U/mL
same,lectin reaction value B of Healthy 1,pH in lectin reaction 7.4,35.8 U/mL
same,lectin reaction value B of Healthy 1,pH in lectin reaction 9.6,51.9 U/mL
same,lectin reaction value of Healthy 2,"serum of Healthy 2, pH in lectin reaction 9.6",55.9 U/mL
same,lectin reaction value of Healthy 3,"serum of Healthy 3, pH in lectin reaction 9.6",63.9 U/mL
same,lectin reaction value of Healthy 4,"serum of Healthy 4, pH in lectin reaction 9.6",74.9 U/mL
same,lectin reaction value of Healthy 5,"serum of Healthy 5, pH in lectin reaction 9.6",55.8 U/mL
same,lectin reaction value of Healthy 6,"serum of Healthy 6, pH in lectin reaction 9.6",39.7 U/mL
same,lectin reaction value of Healthy 7,"serum of Healthy 7, pH in lectin reaction 9.6",59.0 U/mL
same,lectin reaction value of Prostate cancer 1,"serum of Prostate cancer 1, GS 4 (2 + 2), pH in lectin reaction 9.6",115.8 U/mL
same,lectin reaction value of Prostate cancer 2,"serum of Prostate cancer 2, GS 5 (2 + 3), pH in lectin reaction 9.6",116.7 U/mL
same,lectin reaction value of Prostate cancer 3,"serum of Prostate cancer 3, GS 6 (3 + 3), pH in lectin reaction 9.6",104.5 U/mL
same,lectin reaction value A of Prostate cancer 4,pH in lectin reaction 7.4,108.4 U/mL
same,lectin reaction value A of Prostate cancer 4,pH in lectin reaction 9.6,178.8 U/mL
same,lectin reaction value of Prostate cancer 5,"serum of Prostate cancer 5, GS 7 (3 + 4), pH in lectin reaction 9.6",115.8 U/mL
same,lectin reaction value of Prostate cancer 6,"serum of Prostate cancer 6, GS 7 (3 + 4), pH in lectin reaction 9.6",167.5 U/mL
same,lectin reaction value of Prostate cancer 7,"serum of Prostate cancer 7, GS 8 (3 + 5), pH in lectin reaction 9.6",125.6 U/mL
same,lectin reaction value of Prostate cancer 8,"serum of Prostate cancer 8, GS 8 (4 + 4), pH in lectin reaction 9.6",129.8 U/mL
same,lectin reaction value of Prostate cancer 9,"serum of Prostate cancer 9, GS 8 (4 + 4), pH in lectin reaction 9.6",251.4 U/mL
same,"reaction value, Healthy person group, Average value",[1],57.3 U/mL
same,"reaction value, Healthy person group, Median value",[1],55.9 U/mL
same,"reaction value, Prostate cancer patient group, Average value",[2],145.1 U/mL
same,"reaction value, Prostate cancer patient group, Median value",[2],125.6 U/mL
same,"reaction value, GS6, Mean value","subject samples A, n 2, pH 9.6",141.7 U/mL
same,"reaction value, GS6, Median value","subject samples A, n 2, pH 9.6",141.7 U/mL
same,"reaction value, GS7, Mean value","subject samples A, n 2, pH 9.6",141.7 U/mL
same,"reaction value, GS7, Median value","subject samples A, n 2, pH 9.6",141.7 U/mL
same,"reaction value, Negative (GS5 or less), Mean value","subject samples A, n 2, pH 9.6",116.3 U/mL
same,"reaction value, Negative (GS5 or less), Median value","subject samples A, n 2, pH 9.6",116.3 U/mL
same,"reaction value, GS8 or more, Mean value","subject samples A, n 3, pH 9.6",129.8 U/mL
same,"reaction value, GS8 or more, Median value","subject samples A, n 3, pH 9.6",168.9 U/mL
same,"reaction value, GS8-9, Mean value","subject samples B, n 6, pH 9.6",232.9 U/mL
same,"reaction value, GS8-9, Median value","subject samples B, n 6, pH 9.6",239.8 U/mL
same,"reaction value, Negative, Mean value",[3],203.8 U/mL
same,"reaction value, Negative, Median value",[3],178.0 U/mL
same,"reaction value, GS6, Mean value","subject samples B, n 9, pH 9.6",181.7 U/mL
same,"reaction value, GS6, Median value","subject samples B, n 9, pH 9.6",188.9 U/mL
same,"reaction value, GS7, Mean value",[4],119.5 U/mL
same,"reaction value, GS7, Median value",[4],210.6 U/mL

# Reference: patent US20200264182A1, “METHOD FOR DETECTING PROSTATE CANCER” (J-OIL MILLS, INC., priority 2017, published 2020)
